The numbers were not newly measured in patent US20080145318A1, “ATOMOXETINE FORMULATIONS AND ASSOCIATED METHODS” (priority 2006, published 2008), which cites them from elsewhere.

SMILES strings stand for the structures.

The target of data set [1] is norepinephrine reuptake transporter (Homo sapiens, UniProt P23975). The note with it: relative to atomoxetine, in words.
The test system of the next data set is other receptor systems. The note with it: in words.
For a further data set, the target named is serotonin reuptake (Homo sapiens, UniProt P31645). The settings on record: in words.
serotonin reuptake, sequence (P31645 whole entry): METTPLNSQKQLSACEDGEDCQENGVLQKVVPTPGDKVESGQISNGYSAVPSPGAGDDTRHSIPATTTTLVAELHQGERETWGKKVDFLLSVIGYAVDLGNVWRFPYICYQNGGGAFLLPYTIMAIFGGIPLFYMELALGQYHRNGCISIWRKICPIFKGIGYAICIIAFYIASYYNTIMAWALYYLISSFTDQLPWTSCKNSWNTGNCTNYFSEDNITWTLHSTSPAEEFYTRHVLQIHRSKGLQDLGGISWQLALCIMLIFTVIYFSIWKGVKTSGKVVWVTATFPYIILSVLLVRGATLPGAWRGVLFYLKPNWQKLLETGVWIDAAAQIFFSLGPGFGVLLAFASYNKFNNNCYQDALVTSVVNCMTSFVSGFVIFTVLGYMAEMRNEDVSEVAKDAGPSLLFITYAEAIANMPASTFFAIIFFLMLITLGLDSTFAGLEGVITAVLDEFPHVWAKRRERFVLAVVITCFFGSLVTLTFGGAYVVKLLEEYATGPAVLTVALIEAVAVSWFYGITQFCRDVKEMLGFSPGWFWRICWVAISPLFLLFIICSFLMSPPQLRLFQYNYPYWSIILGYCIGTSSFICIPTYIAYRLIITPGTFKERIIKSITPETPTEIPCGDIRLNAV

norepinephrine reuptake transporter, sequence (P23975 whole entry): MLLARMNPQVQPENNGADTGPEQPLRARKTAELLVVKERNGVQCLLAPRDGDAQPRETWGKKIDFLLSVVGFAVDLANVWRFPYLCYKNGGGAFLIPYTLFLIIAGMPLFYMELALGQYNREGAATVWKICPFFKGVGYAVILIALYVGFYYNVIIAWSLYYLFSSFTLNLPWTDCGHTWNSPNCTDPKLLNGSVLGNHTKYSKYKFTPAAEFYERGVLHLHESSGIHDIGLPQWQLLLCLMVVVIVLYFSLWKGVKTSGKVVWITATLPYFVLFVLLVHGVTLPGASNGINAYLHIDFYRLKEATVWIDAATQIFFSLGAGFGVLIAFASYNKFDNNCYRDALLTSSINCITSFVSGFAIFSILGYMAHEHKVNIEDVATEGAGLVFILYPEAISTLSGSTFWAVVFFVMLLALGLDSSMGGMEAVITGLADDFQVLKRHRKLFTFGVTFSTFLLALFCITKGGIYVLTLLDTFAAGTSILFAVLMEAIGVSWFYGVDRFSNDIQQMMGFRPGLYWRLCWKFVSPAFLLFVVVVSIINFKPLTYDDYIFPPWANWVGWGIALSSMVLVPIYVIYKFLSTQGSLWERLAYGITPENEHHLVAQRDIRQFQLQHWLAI

Take `Cc1ccccc1OC(CCN)c1ccccc1` (centres unmarked) [NDA, N-desmethylatomoxetine]: the “inhibitory activity to the norepinephrine reuptake transporter compared to atomoxetine” value in data set [1] is “less active”. Further, the “affinity to other receptor systems” value with other receptor systems is “little affinity”.
With `CNCCC(Oc1ccccc1C)c1ccccc1` (single isomer, unassigned; (-)) [atomoxetine, (−)-N-methyl-3-phenyl-3-(o-tolyloxy)-propylamine], for the setting “individuals having normal activity in the CYP2D6 pathway”, the plasma half-life entry was “about 5 hours”. Moreover, the half-life entry (individuals having reduced activity in the CYP2D6 pathway (poor metabolizers)) was “about 24 hours”.
Consider `Cc1cc(O)ccc1OC(CCN)c1ccccc1` (centres unmarked) [4H-NDA, N-desmethyl-4-hydroxyatomoxetine], for which the “inhibitory activity to the norepinephrine reuptake transporter compared to atomoxetine” value in data set [1] is given as “less active”. In addition, in the data set on other receptor systems, the “affinity to other receptor systems” value is on record as “little affinity”.
Turning to `CNCCC(Oc1ccc(O)cc1C)c1ccccc1` (centres unmarked) [4HA, 4-hydroxyatomoxetine], the “serotonin reuptake inhibitor activity” value on serotonin reuptake is given as “pharmacologically active”. Further, in the data set with other receptor systems, the “affinity to other receptor systems” value is given as “little affinity”.
